Measured values reported in EP0528615A1, “Cribrostatins 1 and 2” (ARIZONA BOARD OF REGENTS, priority 1991, dated 1993).
Values after ≈ are worked out from the molar mass of the structure shown.

Experiments:
colon cancer (CoLo 205) = experiment: NCI panel cell lines, colon cancer; assay type: cell-based, human
From the text: (§1) Presently the Cribrochalina sp. constituents are undergoing detailed antineoplastic evaluation. […] (See: Boyd, status of the NCI preclinical antitumor drug discovery screen: implications for selection of new agents for clinical trial. In: DeVita et al., Principles and Practices of Oncology, update series, Vol. 3, No. 10, Lippincott, Philadelphia 1989, pp1-12; and Boyd et al., Data display and analysis strategies from NCI disease oriented in vitro antitumor drug screen. In:Valeriote et al., Antitumor Drug Discovery and Development, Kluwer Academic Press, Amsterdam, 1990.) The human tumor cell line panel currently used for these studies consists of a diverse array of 60 different cell lines representing eight major cancer subtypes.

[1] = system: NCI human cancer cell lines; experiment: NCI human cancer cell lines, cytostatic activity (general statement); assay type: cell-based
From the text: as §1

[2] = system: non-small lung cancer (A549/ATCC, HOP-18, and NCI-H460); experiment: NCI panel cell lines, non-small lung cancer; assay type: cell-based, human; settings: non-small lung cancer (A549/ATCC, HOP-18, NCI-H460)
From the text: as §1

[3] = system: P388 murine lymphocytic leukemia; experiment: in vitro PS leukemia cell growth inhibition (NCI P388 protocol); assay type: cell-based; settings: Mus musculus, isolated pure compounds, read-out: PS ED₅₀
From the text: In early research devoted to the first systematic investigation of marine animals as new sources of potential anticancer drugs the phylum Porifera rapidly became of increasing importance. Subsequent detection of antineoplastic activity in some of these sponge species led to the isolation of such cell growth inhibitory compounds, as macrocyclic lactones, pyrroles, peptides, and proteins. Meanwhile the isolation of heterocyclic marine sponge constituents such as pyrroles, imidazoles, oxazoles, indoles, pyridines, quinolizidines, pteridines, acridines, other nitrogen systems and quinones has been rapidly accelerating. So far ten isoquinolinequinones have been isolated from blue species of the sponge genera Reniera and Xestospongia. In 1986 an exploratory survey of marine Porifera off remote islands in the Republic of the Maldives was conducted which located a deep blue colored specimen of Cribrochalina sp. (Haplosclerida order) that afforded an orange ethanol extract. The encrusting sponge was found in areas of strong (and dangerous) currents to -45m in the South side of East reef passages and yielded and ethanol extract that provided 40% life extension (at mg/kg) against the U.S. National Cancer Institute's in vivo murine P388 lymphocytic leukemia (PS system). […]

[4] = system: melanoma cancer line (LOX-1MCI; MALME-3M; M14; M19-MEL; SK-MEL-2; KS-MEL-28; SK-MEL-5; UACC_257; UACC-62); assay type: cell-based, human
From the text: as §1

Structure (SMILES): CC1=C(N)C(=O)c2c(ccnc2C)C1=O [Cribrostatin 1]
- result in NCI panel cell line (colon cancer (CoLo 205)): especially favorable results
- cytostatic properties [1]: cytostatic properties
- result in NCI panel cell line [2]: especially favorable results
- IC50 [3]: 1.58 µg/mL (≈ 7.81 µM)
- LC₅₀ [4]: 10⁻⁵ - 10⁻⁶
- sensitivity relative to panel mean ([4]; all nine melanoma lines of the 60 cell line panel): sensitivity greater than the panel mean
- result in NCI panel cell line ([4]; melanoma (MALME-3M, M14, M19-MEL, SK-MEL-2, SK-MEL-28, UACC-257, UACC-62)): especially favorable results

Structure (SMILES): CCOC1=C(C)C(=O)c2cc(=O)n(C)cc2C1=O [Cribrostatin 2]
- cytostatic properties [1]: cytostatic properties
- IC50 [3]: 2.73 µg/mL (≈ 11 µM)
